Measurements as given in patent US20110218188A1, “SUBSTITUTED (PYRIDYL)-AZINYLAMINE DERIVATIVES AS FUNGICIDES” (priority 2008, published 2011).
Marks after values point to notes of the source that are not given here.

Experiment: Measurement of logP values by HPLC on reversed phase columns (EEC directive 79/831 Annex V.A8)
Assay type: physicochemical
Conditions: pH 2.3

Row | Structure (SMILES) | logP
1 | CN(C)C(=O)c1cccc(-c2ccnc(Nc3ccnc(Cl)c3)n2)n1 [Example A34] | 1.96^[b]
2 | O=C(c1cccc(-c2ccnc(Nc3ccnc(Cl)c3)n2)n1)N1CCC1 [Example A35] | 2.21^[b]
3 | CCN(C)C(=O)c1cccc(-c2ccnc(Nc3ccnc(Cl)c3)n2)n1 [Example A36] | 2.25^[b]

Same assay, conditions: pH 2.7

Row | Structure (SMILES) | logP | chromatographic logP
4 | CC(C)N(C)C(=O)c1cc(-c2ccnc(Nc3ccnc(Cl)c3)n2)ccn1 [Example A28] | 2.13 | –
5 | CCC(C)N(C)C(=O)c1cc(-c2ccnc(Nc3ccnc(Cl)c3)n2)ccn1 (stereo not shown) [Example A29] | 2.47 | –
6 | CC(C)=CCN(C)C(=O)c1cc(-c2ccnc(Nc3ccnc(Cl)c3)n2)ccn1 [Example A30] | 2.66 | –
7 | CN(CC1CC1)C(=O)c1cc(-c2ccnc(Nc3ccnc(Cl)c3)n2)ccn1 [Example A31] | 2.28 | –
8 | CN(C)C(=O)c1cc(-c2ccnc(Nc3ccnc(Cl)c3)n2)ccn1 [Example A32] | 1.69 | –
9 | CCN(CC)C(=O)c1cccc(-c2ccnc(Nc3ccnc(Cl)c3)n2)n1 [Example A33] | 2.6 | –
10 | CCN(CC)C(=O)c1cc(-c2ccnc(Nc3ccc(C(C)(C)C)s3)n2)ccn1 [Example A39, 4-{2-[(5-tert-butyl-2-thienyl)amino]pyrimidin-4-yl}-N,N-diethylpyridine-2-carboxamide] | – | 3.62
11 | CCN(CC)C(=O)c1cc(-c2nc(Nc3ccsc3)ncc2C)ccn1 [Example A41, N,N-diethyl-4-[5-methyl-2-(3-thienylamino)pyrimidin-4-yl]pyridine-2-carboxamide] | – | 2.61
12 | Cc1ccc(Nc2nccc(-c3ccnc(C(=O)N(C)C)c3)n2)s1 [Example A48] | 2.13 | –
13 | CN(CCC#N)C(=O)c1cc(-c2ncnc(Nc3cccc(F)c3)n2)ccn1 [Example B1] | 2.22 | –
14 | CCN(CC)C(=O)c1cc(-c2ncnc(Nc3cccc(F)c3)n2)ccn1 [Example B2] | 2.72 | –
15 | CCCN(C)C(=O)c1cc(-c2ncnc(Nc3cccc(F)c3)n2)ccn1 [Example B3] | 2.72 | –
16 | CN(CC1CC1)C(=O)c1cc(-c2ncnc(Nc3cccc(F)c3)n2)ccn1 [Example B4] | 2.82 | –
17 | CN(C)C(=O)c1cc(-c2ncnc(Nc3cccc(F)c3)n2)ccn1 [Example B5] | 2.13 | –
18 | CC(C)CN(C)C(=O)c1cc(-c2ncnc(Nc3cccc(F)c3)n2)ccn1 [Example B6] | 2.92 | –
19 | CCN(C)C(=O)c1cc(-c2ncnc(Nc3cccc(F)c3)n2)ccn1 [Example B7] | 2.4 | –
20 | CC(C)N(C)C(=O)c1cc(-c2ncnc(Nc3cccc(F)c3)n2)ccn1 [Example B8] | 2.67 | –
21 | COCCN(C)C(=O)c1cc(-c2ncnc(Nc3cccc(F)c3)n2)ccn1 [Example B9] | 2.26 | –
22 | CCN(C)C(=S)c1cc(-c2ncnc(Nc3cccc(F)c3)n2)ccn1 [Example B10] | 2.94 | –
23 | CCN(CC)C(=S)c1cc(-c2ncnc(Nc3cccc(F)c3)n2)ccn1 [Example B11] | 3.31 | –
24 | CN(CC1CC1)C(=S)c1cc(-c2ncnc(Nc3cccc(F)c3)n2)ccn1 [Example B12] | 3.42 | –
25 | CCCN(C)C(=S)c1cc(-c2ncnc(Nc3cccc(F)c3)n2)ccn1 [Example B13] | 3.32 | –
26 | CN(CCC#N)C(=O)c1cc(-c2ncnc(Nc3ccc(F)cc3)n2)ccn1 [Example B14] | 2.14 | –
27 | CCN(CC)C(=O)c1cc(-c2ncnc(Nc3ccc(F)cc3)n2)ccn1 [Example B15] | 2.6 | –
28 | CCCN(C)C(=O)c1cc(-c2ncnc(Nc3ccc(F)cc3)n2)ccn1 [Example B16] | 2.62 | –
29 | CN(CC1CC1)C(=O)c1cc(-c2ncnc(Nc3ccc(F)cc3)n2)ccn1 [Example B17] | 2.73 | –

Row | Structure (SMILES) | logP | chromatographic logP
30 | CN(C)C(=O)c1cc(-c2ncnc(Nc3ccc(F)cc3)n2)ccn1 [Example B18] | 2.02 | –
31 | CC(C)CN(C)C(=O)c1cc(-c2ncnc(Nc3ccc(F)cc3)n2)ccn1 [Example B19] | 2.92 | –
32 | CCN(C)C(=O)c1cc(-c2ncnc(Nc3ccc(F)cc3)n2)ccn1 [Example B20] | 2.28 | –
33 | CC(C)N(C)C(=O)c1cc(-c2ncnc(Nc3ccc(F)cc3)n2)ccn1 [Example B21] | 2.55 | –
34 | COCCN(C)C(=O)c1cc(-c2ncnc(Nc3ccc(F)cc3)n2)ccn1 [Example B22] | 3.92 | –
35 | CCN(C)C(=S)c1cc(-c2ncnc(Nc3ccc(F)cc3)n2)ccn1 [Example B23] | 2.8 | –
36 | COCC(C1CC1)N(C)C(=O)c1cc(-c2ncnc(Nc3ccc(F)cc3)n2)ccn1 (stereo not shown) [Example B24] | 2.8 | –
37 | COC(=O)c1cc(-c2ncnc(Nc3cccc(Cl)c3)n2)ccn1 [Example B25] | 2.79 | –
38 | CC(=O)c1cc(-c2ncnc(Nc3cccc(Cl)c3)n2)ccn1 [Example B26, 1-(4-{4-[(3-chlorophenyl)amino]-1,3,5-triazin-2-yl}pyridin-2-yl)ethanone] | – | 3.32
39 | CO/N=C(\C)c1cc(-c2ncnc(Nc3cccc(Cl)c3)n2)ccn1 [Example B27, N-(3-chlorophenyl)-4-{2-[(1E)-N-methoxyethanimidoyl]pyridin-4-yl}-1,3,5-triazin-2-amine] | – | 4.23
40 | O=C(c1cc(-c2ncnc(Nc3cccc(Cl)c3)n2)ccn1)N1CCCC1 [Example B28] | 2.88 | –
41 | O=C(NCC1CCCO1)c1cc(-c2ncnc(Nc3cccc(Cl)c3)n2)ccn1 (stereo not shown) [Example B33] | 3.09 | –
42 | CCC(=O)c1cc(-c2ncnc(Nc3cccc(Cl)c3)n2)ccn1 [Example B45] | 3.79 | –
43 | O=C(NC1CC1)c1cc(-c2ncnc(Nc3cccc(Cl)c3)n2)ccn1 [Example B57] | 3.05 | –
44 | CNN=C(C)c1cc(-c2ncnc(Nc3cccc(Cl)c3)n2)ccn1 [Example B75] | 2.27 | –
45 | CC(=NNCC(F)(F)F)c1cc(-c2ncnc(Nc3cccc(Cl)c3)n2)ccn1 [Example B76] | 3.58 | –
46 | CCOC(=O)CNN=C(C)c1cc(-c2ncnc(Nc3cccc(Cl)c3)n2)ccn1 [Example B77] | 3.02 | –
47 | NC(=NO)c1cc(-c2ncnc(Nc3cccc(Cl)c3)n2)ccn1 [Example B78, 4-{4-[(3-chlorophenyl)amino]-1,3,5-triazin-2-yl}-N′-hydroxypyridine-2-carboximidamide] | – | 2.28
48 | CC(=NNCCC#N)c1cc(-c2ncnc(Nc3cccc(Cl)c3)n2)ccn1 [Example B81, 3-{2-[1-(4-{4-[(3-chlorophenyl)amino]-1,3,5-triazin-2-yl}pyridin-2-yl)ethylidene]hydrazinyl}propanenitrile] | – | 2.5
49 | CC(=NNc1ccc(Cl)cc1)c1cc(-c2ncnc(Nc3cccc(Cl)c3)n2)ccn1 [Example B82] | 4.97 | –
50 | CC(C)NC(=O)c1cc(-c2ncnc(Nc3cccc(Cl)c3)n2)ccn1 [Example B91] | 3.62 | –
51 | CCCCNC(=O)c1cc(-c2ncnc(Nc3cccc(Cl)c3)n2)ccn1 [Example B93] | 4.11 | –
52 | CCC(C)NC(=O)c1cc(-c2ncnc(Nc3cccc(Cl)c3)n2)ccn1 (stereo not shown) [Example B94] | 4.04 | –
53 | CCC(CC#N)NC(=O)c1cc(-c2ncnc(Nc3cccc(Cl)c3)n2)ccn1 (stereo not shown) [Example B95] | 3.35 | –
54 | CCOC1CCC(NC(=O)c2cc(-c3ncnc(Nc4cccc(Cl)c4)n3)ccn2)CC1 (stereo not shown) [Example B97] | 4.39 | –
55 | CCOC(=N)c1cc(-c2ncnc(Nc3cccc(Cl)c3)n2)ccn1 [Example B102, ethyl 4-{4-[(3-chlorophenyl)amino]-1,3,5-triazin-2-yl}pyridine-2-carboximidoate] | – | 2.08
